Patent US20040191913A1, “Method of evaluation of antioxidation ability by measuring redox balance in vivo” (priority 2002, published 2004)

Tests used:
[1] = Radical removability by magnetic spin resonator (attenuation of the DMPO-OOL signal); assay type: biochemical; settings: 10 mM DMPO; for 50% Inhibition Concentration / IC50: DMPO-OOL signal intensity, 1 minute after start of reaction; for IC50: read-out: 50% Inhibition Concentration
Method: The antioxidation index is obtained by indexing the radical removability, R that is determined by the use of a magnetic spin resonator in the manner mentioned below, within a range of from 1 to 10points. The determination with a magnetic spin resonator is effected as follows: The DMPO-OOL radical resulting from trapping of a butylhydroperoxide radical by a spin trapping agent, 5,5-dimethyl-1-pyrroline-N-oxide (DMPO) is quantitatively determined by the use of a magnetic spin resonator, and a serum sample is added to the system to determine the degree of signal intensity attenuation in the system. […] Radical Removability R=[DMPO]/50% Inhibition Concentration.
Preferably, the determination with a magnetic spin resonator is effected as follows: 100 mM butylhydroperoxide, 50 μg/ml methemoglobin, 10 mM DMPO and 0.1 mM diethylenetriamine-pentaacetic acid are reacted in 10 mM phosphate buffer. One minute after the start of the reaction, the DMPO-OOL signal intensity is measured by the use of a magnetic spin resonator.

[2] = tested on: Leptin receptor-defective, natural diabetic db/db mice; experiment: Animal test: 0.02% astaxanthin feed in diabetic db/db mice; assay type: in vivo
Source text: The quantitative determination of 8-OHdG is effected through enzyme immunoassay using a monoclonal antibody.
Leptin receptor-defective, natural diabetic db/db mice (animal model similar to human type-II diabetes) were used in the test. […] A control group of leptin receptor-defective, natural diabetic db/db mice was not given astaxanthin.

Compound	R (Radical Removability = [DMPO]/50% Inhibition Concentration) [1]	IC50 [1] [µM]	other results
CC1=C(/C=C/C(C)=C/C=C/C(C)=C/C=C/C=C(C)/C=C/C=C(C)/C=C/C2=C(C)CCCC2(C)C)C(C)(C)CCC1 [β-Carotene]	–	–	50% Inhibition Concentration [1]: >0.2 mg/mL
Cc1c(C)c2c(c(C)c1O)CC[C@@](C)(CCC[C@H](C)CCC[C@H](C)CCCC(C)C)O2 [α-Tocopherol]	14	700	–
N[C@@H](CCC(=O)N[C@@H](CS)C(=O)NCC(=O)O)C(=O)O [Glutathione]	24	410	–
Catalase	–	–	50% Inhibition Concentration [1]: >4,000 U/ml
O=C1O[C@H]([C@@H](O)CO)C(O)=C1O [Ascorbic acid]	227	44	–
CC1=C(/C=C/C(C)=C/C=C/C(C)=C/C=C/C=C(C)/C=C/C=C(C)/C=C/C2=C(C)C(=O)[C@@H](O)CC2(C)C)C(C)(C)C[C@H](O)C1=O [Astaxanthin, astaxanthin]	–	–	8-OHdG discharge in urine (in words) ([2]; 3 months): significantly inhibits; development of diabetic nephropathy (in words) ([2]; 3 months): significantly retards; 8-OHdG in Urine ([2]; fed for 3 months, enzyme immunoassay, p < 0.05 vs control group): 135.6 ± 41.1 ng/day; Albumin in Urine ([2]; fed for 3 months, p < 0.05 vs control group): 68.6 ± 13.4 µg/day
O=c1[nH]c(=O)c2[nH]c(=O)[nH]c2[nH]1 [Uric acid]	28	360	–
